Measurements reported in PubChem BioAssay (NCI).
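1) Cells in 96-well plates. 2) Compound, 48 h, 5 concentrations. 3) Linear interpolation between surrounding doses. 4) Unreached endpoint = highest concentration. TGI: concentration producing complete growth inhibition.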

How the values were obtained:
Assay in all cases: NCI tumour cell line growth inhibition, 48 h
[1] = test system: SK-OV-3 ovarian
[2] = test system: UACC-257 melanoma
[3] = test system: A498 renal
[4] = test system: LOX IMVI melanoma
[5] = test system: OVCAR-5 ovarian
[6] = test system: DMS 273 small cell lung
[7] = test system: DLD-1 colon
[8] = test system: OVCAR-8 ovarian
[9] = test system: OVCAR-3 ovarian
[10] = test system: UACC-62 melanoma
[11] = test system: MALME-3M melanoma
[12] = test system: SF-539 CNS
[13] = test system: EKVX NSCLC
[14] = test system: MOLT-4 leukemia
[15] = test system: NCI-H460 lung
[16] = test system: SK-MEL-2 melanoma
[17] = test system: IGROV1 ovarian
[18] = test system: SK-MEL-5 melanoma
[19] = test system: HCT-116 colon
[20] = test system: COLO 205 colon
[21] = test system: RPMI-8226 leukemia
[22] = test system: NCI-H23 lung
[23] = test system: K-562 leukemia
[24] = test system: XF 498 CNS
[25] = test system: OVCAR-4 ovarian
[26] = test system: NCI-H226 lung
[27] = test system: HCC-2998 colon
[28] = test system: TK-10 renal
[29] = test system: CCRF-CEM leukemia
[30] = test system: ACHN renal
[31] = test system: NCI-H522 lung
[32] = test system: SK-MEL-28 melanoma
[33] = test system: RXF-631 renal
[34] = test system: SF-268 CNS
[35] = test system: SW-620 colon
[36] = test system: U251 CNS
[37] = test system: CAKI-1 renal
[38] = test system: HOP-18 NSCLC
[39] = test system: 786-0 renal
[40] = test system: HOP-92 NSCLC
[41] = test system: HCT-15 colon
[42] = test system: DMS 114 small cell lung
[43] = test system: A549 NSCLC
[44] = test system: M19-MEL melanoma
[45] = test system: HOP-62 NSCLC
[46] = test system: SN12C renal
[47] = test system: UO-31 renal
[48] = test system: KM12 colon
[49] = test system: SF-295 CNS
[50] = test system: M14 melanoma
[51] = test system: KM20L2 colon
[52] = test system: SNB-19 CNS
[53] = test system: HT29 colon
[54] = test system: SNB-78 CNS
[55] = test system: LXFL 529 NSCLC
[56] = test system: HL-60(TB) leukemia
[57] = test system: SNB-75 CNS
[58] = test system: P388 leukemia
[59] = test system: MCF7 breast
[60] = test system: NCI/ADR-RES ovarian
[61] = test system: RXF 393 renal
[62] = test system: P388/ADR leukemia
[63] = test system: SN12K1 renal

Q: Which TGI [1] does the source give for `CC[C@@H](C(=O)[C@@H](C)[C@@H](O)[C@H](C)CCc1ccc(C)c(O)c1C(=O)O)[C@H]1O[C@](CC)([C@H]2CC[C@](O)(CC)[C@H](C)O2)C[C@@H]1C` here?
A: 10.2 µM

Q: And the TGI [2]?
A: 11.3 µM

Q: And the TGI [3]?
A: 2.37 µM

Q: What about the TGI [4] of the same molecule?
A: 12 µM

Q: And the TGI [5]?
A: 19.3 µM

Q: And the TGI [6]?
A: 8.1 µM

Q: What about the TGI [7] of the same molecule?
A: 13.8 µM

Q: And the TGI [8]?
A: 14.3 µM

Q: And the TGI [9]?
A: 10.9 µM

Q: And the TGI [10]?
A: 4.04 µM

Q: And the TGI [11]?
A: 2.42 µM

Q: And the TGI [12]?
A: 5.46 µM

Q: What about the TGI [13] of the same molecule?
A: 9 µM

Q: What about the TGI [14] of the same molecule?
A: 3.12 µM

Q: What about the TGI [15] of the same molecule?
A: 9.47 µM

Q: And the TGI [16]?
A: 3.82 µM

Q: What about the TGI [17] of the same molecule?
A: 13.3 µM

Q: And the TGI [18]?
A: 3.62 µM

Q: What about the TGI [19] of the same molecule?
A: 9.65 µM

Q: What about the TGI [20] of the same molecule?
A: 4.76 µM

Q: What about the TGI [21] of the same molecule?
A: 5.28 µM

Q: And the TGI [22]?
A: 6.87 µM

Q: And the TGI [23]?
A: 3.05 µM

Q: What about the TGI [24] of the same molecule?
A: 3.41 µM

Q: And the TGI [25]?
A: 19.2 µM

Q: What about the TGI [26] of the same molecule?
A: 10.8 µM

Q: And the TGI [27]?
A: 11.4 µM

Q: And the TGI [28]?
A: 12.6 µM

Q: What about the TGI [29] of the same molecule?
A: 6.29 µM

Q: And the TGI [30]?
A: 13.2 µM

Q: And the TGI [31]?
A: 3.11 µM

Q: And the TGI [32]?
A: 2.86 µM

Q: What about the TGI [33] of the same molecule?
A: 10.7 µM

Q: And the TGI [34]?
A: 9.09 µM

Q: What about the TGI [35] of the same molecule?
A: 15.6 µM

Q: And the TGI [36]?
A: 6.33 µM

Q: What about the TGI [37] of the same molecule?
A: 11.7 µM

Q: What about the TGI [38] of the same molecule?
A: 13.1 µM

Q: What about the TGI [39] of the same molecule?
A: 13.5 µM

Q: What about the TGI [40] of the same molecule?
A: 8.96 µM

Q: What about the TGI [41] of the same molecule?
A: 16 µM

Q: And the TGI [42]?
A: 4.15 µM

Q: And the TGI [43]?
A: 11.9 µM

Q: And the TGI [44]?
A: 4.06 µM

Q: What about the TGI [45] of the same molecule?
A: 4.24 µM

Q: What about the TGI [46] of the same molecule?
A: 10 µM

Q: What about the TGI [47] of the same molecule?
A: 12.4 µM

Q: And the TGI [48]?
A: 9.57 µM

Q: What about the TGI [49] of the same molecule?
A: 6.91 µM

Q: And the TGI [50]?
A: 13.8 µM

Q: And the TGI [51]?
A: 11.6 µM

Q: What about the TGI [52] of the same molecule?
A: 5.95 µM

Q: What about the TGI [53] of the same molecule?
A: 12.6 µM

Q: And the TGI [54]?
A: 17.1 µM

Q: What about the TGI [55] of the same molecule?
A: 4.94 µM

Q: And the TGI [56]?
A: 1.54 µM

Q: What about the TGI [57] of the same molecule?
A: 7.07 µM

Q: With `CC(C)=CC(=O)OC1C2C(C)C(=O)OC2C(O)C(C)C2C=CC(=O)C21C` (centres undefined) as the molecule, how does the TGI [58] read?
A: 1.29 µM

Q: What about the TGI [1] of the same molecule?
A: 15.3 µM

Q: And the TGI [2]?
A: 8.4 µM

Q: And the TGI [3]?
A: 3.29 µM

Q: What about the TGI [4] of the same molecule?
A: 3.44 µM

Q: And the TGI [5]?
A: 12.9 µM

Q: And the TGI [6]?
A: 8.85 µM

Q: And the TGI [7]?
A: 3.9 µM

Q: What about the TGI [8] of the same molecule?
A: 9.59 µM

Q: What about the TGI [9] of the same molecule?
A: 6.92 µM

Q: What about the TGI [10] of the same molecule?
A: 4.64 µM

Q: What about the TGI [11] of the same molecule?
A: 8.28 µM

Q: What about the TGI [12] of the same molecule?
A: 9.5 µM

Q: What about the TGI [13] of the same molecule?
A: 7.88 µM

Q: What about the TGI [14] of the same molecule?
A: 9.71 µM

Q: What about the TGI [15] of the same molecule?
A: 6.33 µM

Q: What about the TGI [59] of the same molecule?
A: 11.1 µM

Q: And the TGI [16]?
A: 11.5 µM

Q: And the TGI [17]?
A: 7.48 µM

Q: What about the TGI [18] of the same molecule?
A: 9.14 µM

Q: And the TGI [19]?
A: 4.69 µM

Q: What about the TGI [20] of the same molecule?
A: 5.83 µM

Q: What about the TGI [21] of the same molecule?
A: 11.7 µM

Q: And the TGI [22]?
A: 7.59 µM

Q: And the TGI [60]?
A: 32.5 µM

Q: And the TGI [23]?
A: 25.3 µM

Q: What about the TGI [24] of the same molecule?
A: 9.77 µM

Q: And the TGI [25]?
A: 6.42 µM

Q: And the TGI [26]?
A: 11.6 µM

Q: And the TGI [27]?
A: 10.1 µM

Q: And the TGI [61]?
A: 3.68 µM

Q: And the TGI [29]?
A: 8.18 µM

Q: What about the TGI [31] of the same molecule?
A: 1.57 µM

Q: And the TGI [32]?
A: 3.82 µM

Q: What about the TGI [34] of the same molecule?
A: 8.42 µM

Q: And the TGI [35]?
A: 5.29 µM

Q: And the TGI [36]?
A: 8.3 µM

Q: What about the TGI [62] of the same molecule?
A: 4.01 µM

Q: What about the TGI [37] of the same molecule?
A: 7.71 µM

Q: What about the TGI [38] of the same molecule?
A: 11.2 µM

Q: And the TGI [40]?
A: 8.85 µM

Q: What about the TGI [41] of the same molecule?
A: 8.52 µM

Q: What about the TGI [42] of the same molecule?
A: 7.19 µM

Q: What about the TGI [43] of the same molecule?
A: 33.6 µM

Q: What about the TGI [44] of the same molecule?
A: 8.42 µM

Q: And the TGI [45]?
A: 14.7 µM

Q: And the TGI [63]?
A: 6.28 µM

Q: What about the TGI [46] of the same molecule?
A: 8.19 µM

Q: And the TGI [47]?
A: 10.5 µM

Q: What about the TGI [48] of the same molecule?
A: 9.31 µM

Q: What about the TGI [49] of the same molecule?
A: 13.4 µM

Q: And the TGI [51]?
A: 7.76 µM

Q: And the TGI [52]?
A: 17.4 µM

Q: What about the TGI [53] of the same molecule?
A: 7.94 µM

Q: And the TGI [54]?
A: 9.88 µM

Q: What about the TGI [56] of the same molecule?
A: 3.4 µM

Q: And the TGI [57]?
A: 6.67 µM
